Measurements from patent US7390804B2, “N-containing five-membered ring compounds and pharmaceutical agents comprising the same as active ingredient” (Ono Pharmaceutical Co., Ltd., priority 2000, dated 2008).

Key:
Cathepsin K = target: T1, Cathepsin K (Homo sapiens, UniProt P43235); assay: Measurement of Cathepsin K inhibitory activity; assay type: biochemical; details: Dixon plot, pH 5.5, 37° C.
T1 sequence (P43235 115-329): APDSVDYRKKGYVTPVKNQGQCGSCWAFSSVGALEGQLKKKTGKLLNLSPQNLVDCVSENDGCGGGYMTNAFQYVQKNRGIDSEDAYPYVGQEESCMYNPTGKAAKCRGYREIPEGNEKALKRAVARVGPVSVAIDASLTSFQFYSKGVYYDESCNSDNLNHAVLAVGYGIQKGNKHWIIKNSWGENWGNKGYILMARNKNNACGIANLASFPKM
Protocol: (i) Measurement of Cathepsin K Inhibitory Activity
65 μL of Cathepsin K enzyme reaction buffer (50 mmol/L of 2-(N-morpholino)ethanesulfonate, 2 mmol/L of ethylenediamine tetraacetate (EDTA) and 4 mmol/L of dithiothreitol (DTT) were mixed to adjust to pH 5.5), 5 μL of cysteine protease inhibitor solution of several concentrations, 20 μL of synthesized substrate (t-butyloxycarbonyl-L-alanyl-glycyl-L-prolyl-L-arginine-4-methyl-chromanyl-7-amide) solution of several concentrations and 10 μL of cathepsin K enzyme solution were mixed and the increase of fluorescence intensity when reacted at 37° C. was measured (λ ex (excitation wavelength)=355 nm, λ em (fluorescence wavelength)=460 nm). As to the substrate and the compound of the present invention, enzyme reactions were carried out in combination of several appropriate concentrations and Dixon plotting was prepared, to define the absolute value of X-coordinate of the intersection point of the graph as Ki value.

cathepsin S = cathepsin S (Homo sapiens, UniProt P25774); assay: Measurement of Cathepsin S inhibitory activity; assay type: biochemical; details: pH 6.5, 37° C.
Chain of cathepsin S (P25774 115-331, species assumed): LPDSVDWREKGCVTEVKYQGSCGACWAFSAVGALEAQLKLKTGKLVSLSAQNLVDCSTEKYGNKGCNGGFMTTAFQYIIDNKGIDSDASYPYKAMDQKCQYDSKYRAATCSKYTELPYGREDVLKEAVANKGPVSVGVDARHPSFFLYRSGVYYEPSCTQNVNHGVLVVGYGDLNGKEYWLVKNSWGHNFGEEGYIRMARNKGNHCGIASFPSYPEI
Protocol: (iii) Measurement of Cathepsin S Inhibitory Activity
10 μL of synthesized substrate (carbobenzoxy-L-leucyl-L-leucyl-L-arguinine-4-methyl-chromanyl-7-amide) solution and 5 μL of cysteine protease inhibitor solution of several concentrations, 75)L of cathepsin S enzyme reaction buffer (100 mmol/L of sodium phosphate, 2 mmol/L of EDTA, 2 mmol/L of DTT were mixed to adjust to pH 6.5) and 10 μL of cathepsin S enzyme solution were mixed and the increase of fluorescence intensity was measured (λ ex(excitation wavelength)=355 nm, λ em (fluorescence wavelength)=460 nm) when reacted at 37° C.

Ki (Cathepsin K) [nM] | inhibition at 1 µM (cathepsin S) [%] | Structure (SMILES)
21 | – | CC(C)C[C@H](NC(=O)[C@H](CC(C)C)NC(=O)OCc1ccccc1)C(=O)Cn1nnc(-c2c(F)c(F)c(F)c(F)c2F)n1 [example 1(40), 2(S)-N-[3(S)-1-(5-(perfluorophenyl)tetrazol-2-yl)-2-oxo-5-methyl-3-hexyl]-2-benzyloxycarbonylamino-4-methylpentanamide]
36 | – | CC(C)C[C@H](NC(=O)[C@H](CC(C)C)NC(=O)OCc1ccccc1)C(=O)Cn1c(-c2ccc(F)cc2)noc1=O [example 3(7), 2(S)-N-[3(S)-1-(5-oxo-3-(4-fluorophenyl)-1,2,4-oxadiazolin-4-yl)-2-oxo-5-methyl-3-hexyl]-2-benzyloxycarbonylamino-4-methylpentanamide]
– | 90 | CC(C)C[C@H](NC(=O)[C@H](CC(C)C)NC(=O)OCc1ccccc1)C(=O)Cn1nc(CCc2ccccc2)oc1=O [example 3(17), 2(S)-N-[3(S)-1-(5-oxo-2-(2-phenylethyl)-1,3,4-oxadiazolin-4-yl)-2-oxo-5-methyl-3-hexyl]-2-benzyloxycarbonylamino-4-methylpentanamide]
